Results taken from patent US8278455B2, “5- or 6-substituted benzimidazole derivatives as inhibitors of respiratory syncytial virus replication” (Janssen Pharmaceutica N.V., priority 2003, dated 2012).
pEC50: −log10 of the molar value.

How the values were obtained:
[1] = tested on: Respiratory Syncytial Virus; assay: In vitro screening for activity against Respiratory Syncytial Virus (MTT tetrazolium colorimetric assay, HeLa cells); type: cell-based; conditions: protection against RSV cytopathology in HeLa cells, 7 days after infection, pEC50 = −log of EC50 in molar units; for pEC50: human respiratory syncytial virus, 168 h
In short: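 HeLa cells (4×10^5 cells/ml) added 2 h after ~100 TCID50 RSV to wells holding five-fold compound dilutions, in Eagle's medium with 5% FCS and 20 mM Hepes; mock-infected rows gave cytotoxicity. After 7 days at 37 °C, MTT read at 540 minus 690 nm; EC50/CC50 from dose-response, reported as pEC50 categories.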

## Cc1ccc(O)c(Cn2c(NC3CCN(CCO)CC3)nc3ccc(CCCN)cc32)n1.Cl [Compound 160, 2-{6-(3-Amino-propyl)-2-[1-(2-hydroxy-ethyl)-piperidin-4-ylamino]-benzoimidazol-1-ylmethyl}-6-methyl-pyridin-3-ol hydrochloride salt]
other
  melting point: 185 °C
[1]
  pEC50: 7.90

## Cc1cc(C)cc(NCc2ccc3nc(NCCCN4CCN(C)CC4)n(Cc4nc(C)ccc4O)c3c2)c1 [Compound 174, 2-{6-[(3,5-Dimethyl-phenylamino)-methyl]-2-[3-(4-methyl-piperazin-1-yl)-propylamino]-benzoimidazol-1-ylmethyl}-6-methyl-pyridin-3-ol]
other
  melting point: 150 °C
[1]
  pEC50: 8.40

## Cc1cc(C)cc(NCc2ccc3nc(NCC(O)CO)n(Cc4nc(C)ccc4O)c3c2)c1 (stereo not shown) [Compound 175, 3-[6-[(3,5-dimethyl-phenylamino)methyl]-1-(3-hydroxy-6-methyl-pyridin-2-ylmethyl)-1H-benzoimidazol-2-ylamino]-propane-1,2-diol]
other
  melting point: 128 °C
[1]
  pEC50: 7.50

## Cc1cc(C)cc(NCc2ccc3nc(NCCCN4CCCCC4)n(Cc4nc(C)ccc4O)c3c2)c1 [Compound 173, 2-[6-[(3,5-dimethyl-phenylamino)-methyl]-2-(3-piperidin-1-yl-propylamino)-benzoimidazol-1-ylmethyl]-6-methyl-pyridin-3-ol]
other
  melting point: 161 °C
[1]
  pEC50: 8.80

## Cc1cccc(CNc2ccc3nc(NC4CCN(C)CC4)n(Cc4nc(C)ccc4O)c3c2)c1 [Compound 28, 6-methyl-2-[6-(3-methyl-benzylamino)-2-(1-methyl-piperidin-4-ylamino)-benzoimidazol-1-ylmethyl]-pyridin-3-ol]
other
  melting point: 240 °C
[1]
  pEC50: 7.80

## Cc1ccc(O)c(Cn2c(NC3CCN(CCN)CC3)nc3ccc(CCc4ccccc4)cc32)n1.Cl [Compound 143, 2-{2-[1-(2-amino-ethyl)-piperidin-4-ylamino]-6-phenethyl-benzoimidazol-1-ylmethyl}-6-methyl-pyridin-3-ol hydrochloride salt]
other
  melting point: 181 °C
[1]
  pEC50: 9.00

## Cc1cccc(C(N)c2ccc3nc(NC4CCN(CCO)CC4)n(Cc4nc(C)ccc4O)c3c2)c1 (stereo not shown) [Compound 148, 2-[2-[1-(2-hydroxy-ethyl)-piperidin-4-ylamino]-6-(m-tolyl-amino-methyl)-benzoimidazol-1-ylmethyl]-6-methyl-pyridin-3-ol]
other
  melting point: 137 °C

## Cc1ccc(O)c(Cn2c(NC3CCN(CCN)CC3)nc3ccc(C=Cc4ccccc4)cc32)n1.Cl (hydrate or solvate) [Compound 146, 2-{2-[1-(2-Amino-ethyl)-piperidin-4-ylamino]-6-styryl-benzoimidazol-1-ylmethyl}-6-methyl-pyridin-3-ol hydrochloride salt]
other
  melting point: > 260 °C

## Cc1ccc(O)c(Cn2c(NC3CCN(CCN)CC3)nc3ccc(C=Cc4ccccc4)cc32)n1.Cl [Compound 146, 2-{2-[1-(2-Amino-ethyl)-piperidin-4-ylamino]-6-styryl-benzoimidazol-1-ylmethyl}-6-methyl-pyridin-3-ol hydrochloride salt]
other
  melting point: 260 °C
[1]
  pEC50: 8.90

## Cc1cccc(NC(=O)c2ccc3nc(NC4CCN(C)CC4)n(Cc4nc(C)ccc4O)c3c2)c1 [Compound 116, 3-(3-hydroxy-6-methyl-pyridin-2-ylmethyl)-2-(1-methyl-piperidin-4-ylamino)-3H-benzoimidazole-5-carboxylic acid m-tolylamide]
other
  melting point: 172 °C
[1]
  pEC50: 5.10

## Cc1cccc(NCc2cc(C)c3nc(NC4CCN(CCO)CC4)n(Cc4nc(C)ccc4O)c3c2)c1 [Compound 171, 2-[2-[1-(2-Hydroxy-ethyl)-piperidin-4-ylamino]-4-methyl-6-(m-tolylamino-methyl)-benzoimidazol-1-ylmethyl]-6-methyl-pyridin-3-ol]
other
  melting point: 123 °C
[1]
  pEC50: 8.50

## Cc1ccc(O)c(Cn2c(NC3CCN(C)CC3)nc3ccccc32)n1 [Compound 101]
other
  melting point: > 260 °C
[1]
  pEC50: 6.40

## COc1ccc(CCNc2nc3ccc(CNc4cc(C)cc(C)c4)cc3n2Cc2nc(C)ccc2O)cc1 [Compound 190, 2-{6-[(3,5-Dimethyl-phenylamino)-methyl]-2-[2-(4-methoxy-phenyl)-ethylamino]-benzoimidazol-1-ylmethyl}-6-methyl-pyridin-3-ol]
other
  melting point: 178 °C
[1]
  pEC50: < 4.00

## Cc1ccc(O)c(Cn2c(NC3CCN(C)CC3)nc3ccc(CN(c4ccccc4)c4ccc(O)cc4)cc32)n1 [Compound 16]
[1]
  Activity: 8

## Cc1ccc(O)c(Cn2c(NC3CCN(C)CC3)nc3ccc(CNc4cc(Cl)c(Cl)cc4Cl)cc32)n1 [Compound 77]
[1]
  Activity: 7

## COc1ccc(CCNc2nc3cc(CO)ccc3n2Cc2nc(C)ccc2O)cc1 [Compound 189]
[1]
  Activity: <4

## Cc1ccc(O)c(Cn2c(NC3CCN(C)CC3)nc3ccc(CN(CCC#N)CCC#N)cc32)n1 [Compound 137]
[1]
  Activity: <4

## Cc1ccc(O)c(Cn2c(NC3CCN(C)CC3)nc3ccc(NC(=O)Cc4ccccc4)cc32)n1 [Compound 107]
[1]
  Activity: 6.1

## CC(=O)Nc1cccc(NCc2ccc3nc(NC4CCN(C)CC4)n(Cc4nc(C)ccc4O)c3c2)c1 [Compound 49]
[1]
  Activity: 7.4

## Cc1cccc(SCc2ccc3nc(NC4CCN(C)CC4)n(Cc4nc(C)ccc4O)c3c2)c1 [Compound 93, 6-methyl-2-[2-(1-methyl-piperidin-4-ylamino)-6-m-tolylsulfanylmethyl-benzoimidazol-1-ylmethyl]-pyridin-3-ol]
other
  melting point: 202 °C
[1]
  pEC50: 6.60

## Cc1ccc(O)c(Cn2c(NC3CCN(C)CC3)nc3ccc(CNc4cccc(Cl)c4C)cc32)n1 [Compound 40]
[1]
  Activity: 7.6

## Cc1ccc(O)c(Cn2c(NC3CCN(C)CC3)nc3ccc(CNc4ccc(C)c(F)c4)cc32)n1 [Compound 60]
[1]
  Activity: 7.3

## CCc1cccc(NCc2ccc3nc(NC4CCN(C)CC4)n(Cc4nc(C)ccc4O)c3c2)c1 [Compound 15]
[1]
  Activity: 8

## Cc1cc(C)cc(NCc2ccc3c(c2)nc(NCCCN2CCN(C)CC2)n3Cc2nc(C)ccc2O)c1 [Compound 179]
[1]
  Activity: 6.2

## Cc1cccc(/C=C/c2ccc3nc(NC4CCN(C)CC4)n(Cc4nc(C)ccc4O)c3c2)c1 [Compound 103]
[1]
  Activity: 6.3

## Cc1ccc(O)c(Cn2c(NC3CCN(CCO)CC3)nc3ccc(C=Cc4ccccc4)cc32)n1 [Compound 169]
[1]
  Activity: 6.6

## Cc1ccc(O)c(Cn2c(NC3CCN(C)CC3)nc3ccc(NC(=O)CCc4ccccc4)cc32)n1 [Compound 106]
[1]
  Activity: 6.1

## COCCN(CCOC)Cc1ccc2nc(NC3CCN(C)CC3)n(Cc3nc(C)ccc3O)c2c1 [Compound 102]
[1]
  Activity: 6.4

## Cc1ccc(O)c(Cn2c(NC3CCN(C)CC3)nc3cc(CO)ccc32)n1 [Compound 122]
[1]
  Activity: <4

## Cc1ccc(O)c(Cn2c(NC3CCN(C)CC3)nc3cc(NC(=O)c4cccnc4)ccc32)n1 [Compound 55]
[1]
  Activity: 7.3

## Cc1cc(C)cc(NCc2ccc3nc(NCCc4ccccc4)n(Cc4nc(C)ccc4O)c3c2)c1 [Compound 187]
[1]
  Activity: <4
